According to article PMC12114840, “Exploring the Anticancer Properties of 1,2,3-Triazole-Substituted Andrographolide Derivatives” (Pharmaceuticals, 2025):

Tests used:
[1] = tested on: PANC-1 cells (pancreatic ductal adenocarcinoma); test: Sulforhodamine B (SRB) antiproliferative assay, PANC-1; type: cell-based, human; conditions: Homo sapiens; PANC-1, 48 h, SRB; mean ± SEM of four to six independent experiments
Protocol: (§1) The antiproliferative properties of andrographolide and all prepared derivatives (2–26) were evaluated against a panel of different cancer cell lines, including human pancreatic ductal adenocarcinoma (PANC-1), colorectal adenocarcinoma (HCT116), melanoma (A375), breast adenocarcinoma (MCF-7) and a non-tumorigenic colon (CCD-18Co) cell line using the sulforhodamine B assay.
(§2) Human breast adenocarcinoma MCF-7, pancreatic ductal adenocarcinoma PANC-1, melanoma A375, and non-tumorigenic colon CCD-18Co cell lines were purchased from ATCC (Rockville, MD, USA). Human colorectal adenocarcinoma HCT116 cells were kindly provided by B. Vogelstein (The Johns Hopkins Kimmel Cancer Center, Baltimore, MD, USA). Tumor cells were routinely cultured in RPMI-1640 medium with UltraGlutamine from Biowest (VWR, Carnaxide, Portugal) supplemented with 10% fetal bovine serum (FBS) from Biowest (VWR, Carnaxide, Portugal), except for the PANC-1 cells, which were grown in DMEM (4.5 g/L glucose) with stable L-glutamine and sodium pyruvate and supplemented with 10% FBS. The non-tumorigenic CCD-18Co cells were cultured in EMEM (Lonza, VWR, Carnaxide, Portugal), supplemented with 10% FBS. All cells were incubated at 37 °C in a humidified atmosphere of 5% CO2. Routine mycoplasma testing was performed using the MycoAlert™ PLUS mycoplasma detection kit (Lonza).
(§3) For the evaluation of the compound effect on cell proliferation, human cell lines were seeded in 96-well plates at a density of 5.0 × 10^3 (HCT116, MCF-7, PANC-1, A375, and CCD-18Co) cells per well, for 24 h. Cells were then treated with serial dilutions of the compound (ranging from 0.63 to 30 µM), for an additional 48 h incubation period. The growth inhibitory effects were assessed by SRB assay, as described in [58], and the half-maximal inhibitory concentration (IC50 values) were determined for each cell line using the GraphPad Prism software version 7.0 (La Jolla, CA, USA). Culture medium containing a maximum of 0.05% dimethyl sulfoxide (DMSO) was used as negative control.

[2] = tested on: HCT116 cells (colorectal adenocarcinoma); test: Sulforhodamine B (SRB) antiproliferative assay, HCT116; type: cell-based; conditions: Homo sapiens, HCT-116, HCT116, 48 h, mean ± SEM of four to six independent experiments
Protocol: as §1, §2, §3

A375 cells (melanoma) = test: Sulforhodamine B (SRB) antiproliferative assay, A375; type: cell-based; conditions: Homo sapiens, A-375, A375, 48 h, mean ± SEM of four to six independent experiments
Protocol: as §1, §2, §3

[3] = tested on: MCF-7 cells (breast adenocarcinoma); test: Sulforhodamine B (SRB) antiproliferative assay, MCF-7; type: cell-based; conditions: Homo sapiens, MCF7, MCF-7, 48 h, mean ± SEM of four to six independent experiments
Protocol: as §1, §2, §3

[4] = tested on: CCD-18Co cells (non-tumorigenic colon); test: Sulforhodamine B (SRB) antiproliferative assay, CCD-18Co; type: cell-based; conditions: Homo sapiens, CCD-18Co non-tumorigenic, 48 h, mean ± SEM of four to six independent experiments
Protocol: as §1, §2, §3

| Structure (SMILES) | IC50 [1] | IC50 [2] | IC50 (A375 cells (melanoma)) | IC50 [3] | IC50 [4] |
| --- | --- | --- | --- | --- | --- |
| C=C1CC[C@@H]2[C@](C)(COC(C)=O)[C@H](OC(C)=O)CC[C@@]2(C)[C@@H]1C[C@H](C1=CCOC1=O)n1cc(-c2ccccn2)nn1 [Compound 24, (12R)-4-pyridine-1,2,3-triazole-3,19-diacetoxy-14-deoxy-andrographolide] | 1.8 ± 0.1 µM | 6.7 ± 3.2 µM | 1.3 ± 0.3 µM | 7 ± 0.2 µM | 4.6 ± 1.4 µM |
| C=C1CC[C@@H]2[C@](C)(COC(C)=O)[C@H](OC(C)=O)CC[C@@]2(C)[C@@H]1C[C@H](C1=CCOC1=O)n1cc(-c2ccsc2)nn1 [Compound 25, (12R)-4-(3-thiophene)-1,2,3-triazole-3,19-diacetoxy-14-deoxy-andrographolide] | 4.5 ± 2 µM | 1.7 ± 0.3 µM | 1.8 ± 0.3 µM | 6.9 ± 0.1 µM | 8.9 ± 0.2 µM |
| C=C1CC[C@@H]2[C@](C)(COC(C)=O)[C@H](OC(C)=O)CC[C@@]2(C)[C@@H]1C[C@@H](C1=CCOC1=O)n1cc(-c2ccsc2)nn1 [Compound 26, (12S)-4-(3-thiophene)-1,2,3-triazole-3,19-diacetoxy-14-deoxy-andrographolide] | 4.3 ± 1.4 µM | 1.3 ± 0.1 µM | 1.4 ± 0.1 µM | 6.1 ± 0.2 µM | 6.2 ± 1.4 µM |
| COc1cc([C@@H]2c3cc4c(cc3[C@@H](O[C@@H]3O[C@@H]5CO[C@@H](C)O[C@H]5[C@H](O)[C@H]3O)[C@H]3COC(=O)[C@H]23)OCO4)cc(OC)c1O [Etoposide, reference compound] | 2.8 ± 0.05 µM | 0.65 ± 0.09 µM | 0.82 ± 0.07 µM | 1.8 ± 0.03 µM | 0.76 ± 0.01 µM |
